Source: patent US8703805B2 (Exelixis Patent Company LLC, priority 2005, dated 2014)
“And” between values parts separate entries of the source, which are not always exact repeats. Equal values may be shown once.

Tested on: LXRα and/or LXRβ
Test: LXR/LXRE co-transfection assay (luciferase reporter, CV-1 cells)
Type: cell-based, human
Conditions: IC50 or EC50 for LXR (LXRα and/or LXRβ, not distinguished), tested as described in Example 109, CV-1 cells
How it was run: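 Luciferase readout after 20 h compound exposure at 37 °C in CV-1 cells transiently expressing human LXRα or LXRβ with RXRα and an LXRE-driven reporter. Dose-response over 8 points at ½-log spacing, 4 wells each, fitted for EC50/IC50; values average ≥3 independent experiments, efficacy as % of high control.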

SMILES | EC50
CN1CCC(N(C)C(=O)c2cc(-c3ccc(-c4cccc(S(C)(=O)=O)c4)s3)n(-c3ccccc3Cl)n2)CC1 [Example 716, 1-(2-chlorophenyl)-N-methyl-N-(1-methylpiperidin-4-yl)-5-{5-[3-(methylsulfonyl)phenyl]-2-thienyl}-1H-pyrazole-3-carboxamide] | < 1000 nM
CN(CC(N)=O)C(=O)c1cc(-c2ccc(-c3cccc(S(C)(=O)=O)c3)s2)n(-c2ccccc2Cl)n1 [Example 724, N-(2-amino-2-oxoethyl)-1-(2-chlorophenyl)-N-methyl-5-{5-[3-(methylsulfonyl)phenyl]-2-thienyl}-1H-pyrazole-3-carboxamide] | 1000 to 10000 nM
CS(=O)(=O)c1cccc(-c2ccc(-c3cc(C(=O)NCCCN4CCCC4)nn3-c3ccccc3Cl)s2)c1 [Example 733, 1-(2-chlorophenyl)-5-{5-[3-(methylsulfonyl)phenyl]-2-thienyl}-N-(3-pyrrolidin-1-ylpropyl)-1H-pyrazol-3-carboxamide] | < 1000 nM
CCN1CCC(CNC(=O)c2cc(-c3ccc(-c4cccc(S(C)(=O)=O)c4)s3)n(-c3ccccc3Cl)n2)C1 (centres unmarked) [Example 739, 1-(2-chlorophenyl)-N-[(1-ethylpyrrolidin-3-yl)methyl]-5-{5-[3-(methylsulfonyl)phenyl}-2-thienyl}-1H-pyrazole-3-carboxamide] | 1000 to 10000 nM
CC(=O)c1cccc(-c2ccc(-c3cc(C(C)(C)O)nn3-c3ccccc3Cl)s2)c1 [Example 755, 1-(3-{5-[1-(2-chlorophenyl)-3-(1-hydroxy-1-methylethyl)-1H-pyrazol-5-yl]-2-thienyl}phenyl)ethanone] | 1000 to 10000 nM
CC(C)(O)c1cc(-c2ccc(-c3ccc(S(C)(=O)=O)cc3)s2)n(-c2ccccc2Cl)n1 [Example 804, 2-[1-(2-chlorophenyl)-5-{5-[4-(methylsulfonyl)phenyl]-2-thienyl}-1H-pyrazol-3-yl]propan-2-ol] | 1000 to 10000 nM
COc1cccc(-c2ccc(-c3cc(C(C)(C)O)nn3-c3ccccc3Cl)s2)c1OC [Example 859, 2-[5-{5-[2,3-bis(methyloxy)phenyl]-2-thienyl}-1-(2-chlorophenyl)-1H-pyrazol-3-yl]propan-2-ol] | 1000 to 10000 nM
O=C(NCCN1CCOCC1)c1ccc(-c2cc(C(F)(F)F)nn2-c2ccccc2Cl)cc1 [Example 970, 4-[1-(2-chlorophenyl)-3-(trifluoromethyl)-1H-pyrazol-5-yl]-N-(2-morpholin-4-ylethyl)benzamide] | 1000 to 10000 nM
O=C(c1ccc(-c2cc(C(F)(F)F)nn2-c2ccccc2Cl)cc1)N1CCCC1CO (centres unmarked) [Example 1000, [1-({4-[1-(2-chlorophenyl)-3-(trifluoromethyl)-1H-pyrazol-5-yl]phenyl}carbonyl)pyrrolidin-2-yl]methanol] | 1000 to 10000 nM
CN1CCC(N(C(=O)c2ccc(-c3cc(C(F)(F)F)nn3-c3ccccc3Cl)cc2)C2CC2)CC1 [Example 1029, 4-[1-(2-chlorophenyl)-3-(trifluoromethyl)-1H-pyrazol-5-yl]-N-cyclopropyl-N-(1-methylpiperidin-4-yl)benzamide] | 1000 to 10000 nM
CS(=O)(=O)c1cccc(-c2ccc(-c3cc(C(=O)N4CCCC4)nn3-c3ccccc3Cl)s2)c1 [Example 1129, 1-(2-chlorophenyl)-5-{5-[3-(methylsulfonyl)phenyl]-2-thienyl}-3-(pyrrolidin-1-ylcarbonyl)-1H-pyrazole] | < 1000 nM
CS(=O)(=O)c1cccc(-c2ccc(-c3cc(C(F)(F)F)nn3-c3ccccc3S(N)(=O)=O)s2)c1 [Example 1131, 2-[5-{5-[3-(methylsulfonyl)phenyl]-2-thienyl}-3-(trifluoromethyl)-1H-pyrazol-1-yl]benzenesulfonamide] | < 1000 nM
CS(=O)(=O)c1cccc(-c2ccc(-c3cc(C(=O)Nc4cccc(C(F)(F)F)c4)nn3-c3ccccc3Cl)s2)c1 [Example 1133, 1-(2-chlorophenyl)-5-{5-[3-(methylsulfonyl)phenyl]-2-thienyl}-N-[3-(trifluoromethyl)phenyl]-1H-pyrazole-3-carboxamide] | 1000 to 10000 nM
CC(C)(C#N)c1cc(-c2ccc(-c3cccc(S(C)(=O)=O)c3)s2)n(-c2ccccc2Cl)n1 [Example 1134, 2-[1-(2-chlorophenyl)-5-{5-[3-(methylsulfonyl)phenyl]-2-thienyl}-1H-pyrazol-3-yl]-2-methylpropanenitrile] | < 1000 nM
CS(=O)(=O)c1cccc(-c2ccc(-c3cc(Cc4nnn[nH]4)nn3-c3ccccc3Cl)s2)c1 [Example 1136, 5-{[1-(2-chlorophenyl)-5-{5-[3-(methylsulfonyl)phenyl]-2-thienyl}-1H-pyrazol-3-yl]methyl}-1H-tetrazole] | 1000 to 10000 nM
NS(=O)(=O)c1cccc(-c2ccc(-c3cc(C(F)(F)F)nn3-c3ccccc3Cl)cc2)c1 [Example 1137, 4′-[1-(2-chlorophenyl)-3-(trifluoromethyl)-1H-pyrazol-5-yl]biphenyl-3-sulfonamide] | < 1000 nM

SMILES | EC50
COC(=O)c1cc(-c2cc(C(F)(F)F)nn2-c2ccccc2Cl)ccc1-c1cccc(S(C)(=O)=O)c1 [Example 1138, methyl 4-[1-(2-chlorophenyl)-3-(trifluoromethyl)-1H-pyrazol-5-yl]-3′-(methylsulfonyl)biphenyl-2-carboxylate] | 1000 to 10000 nM
CS(=O)(=O)c1cccc(-c2ccc(-c3cc(C(F)(F)F)nn3-c3ccccc3Cl)cc2C(=O)O)c1 [Example 1139, 4-[1-(2-chlorophenyl)-3-(trifluoromethyl)-1H-pyrazol-5-yl]-3′-(methylsulfonyl)biphenyl-2-carboxylic acid] | 1000 to 10000 nM and < 1000 nM
CCN(CC)CCN(C)C(=O)c1cc(-c2ccc(-c3cccc(S(C)(=O)=O)c3)s2)n(-c2ccccc2Cl)n1 [Example 1140, 1-(2-chlorophenyl)-N-[2-(diethylamino)ethyl]-N-methyl-5-{5-[3-(methylsulfonyl)phenyl]-2-thienyl}-1H-pyrazole-5-carboxamide] | 1000 to 10000 nM
CS(=O)(=O)c1cccc(-c2ccc(-c3cc(C(F)(F)F)nn3-c3ccccc3Cl)cc2C(=O)N2CCOCC2)c1 [Example 1142, 4-({4-[1-(2-chlorophenyl)-3-(trifluoromethyl)-1H-pyrazol-5-yl]-3′-(methylsulfonyl)biphenyl-2-yl}carbonyl)morpholine] | 1000 to 10000 nM
CN(C)CCN(C)C(=O)c1cc(-c2ccc(-c3cccc(S(C)(=O)=O)c3)s2)n(-c2ccccc2Cl)n1 [Example 1144, 1-(2-chlorophenyl)-N-[2-(dimethylamino)ethyl]-N-methyl-5-{5-[3-(methylsulfonyl)phenyl]-2-thienyl}-1H-pyrazole-3-carboxamide] | 1000 to 10000 nM
CCC(O)CS(=O)(=O)c1cccc(-c2ccc(-c3cc(C(F)(F)F)nn3-c3cc(Cl)ccc3Cl)s2)c1 (centres unmarked) [Example 1146, 1-[(3-{5-[1-(2,5-dichlorophenyl)-3-(trifluoromethyl)-1H-pyrazol-5-yl]-2-thienyl}phenyl)sulfonyl]butan-2-ol] | < 1000 nM
CN(Cc1cc(-c2ccc(-c3cccc(S(C)(=O)=O)c3)s2)n(-c2ccccc2Cl)n1)Cc1ncco1 [Example 1147, 1-[1-(2-chlorophenyl)-5-{5-[3-(methylsulfonyl)phenyl]-2-thienyl}-1H-pyrazol-3-yl]-N-methyl-N-(1,3-oxazol-2-ylmethyl)methanamine] | < 1000 nM
CS(=O)(=O)c1cccc(-c2ccc(-c3cc(C(F)(F)F)nn3-c3ccccc3Cl)cc2CN2CCOCC2)c1 [Example 1148] | 1000 to 10000 nM
CS(=O)(=O)c1cc(-c2ccc(-c3cc(C(F)(F)F)nn3-c3ncccc3C(F)(F)F)s2)ccc1CO [Example 1149, [2-(methylsulfonyl)-4-(5-{3-(trifluoromethyl)-1-[3-(trifluoromethyl)pyridin-2-yl]-1H-pyrazol-5-yl}-2-thienyl)phenyl]methanol] | < 1000 nM
CC(=O)c1cc(-c2ccc(-c3cccc(S(C)(=O)=O)c3)s2)n(-c2ccccc2Cl)n1 [Example 1150, 1-[1-(2-chlorophenyl)-5-{5-[3-(methylsulfonyl)phenyl]-2-thienyl}-1H-pyrazol-3-yl]ethanone] | < 1000 nM
CC(C)(N)c1cc(-c2ccc(-c3cccc(S(C)(=O)=O)c3)s2)n(-c2ccccc2Cl)n1 [Example 1151, 2-[1-(2-chlorophenyl)-5-{5-[3-(methylsulfonyl)phenyl]-2-thienyl}-1H-pyrazol-3-yl]propan-2-amine] | 1000 to 10000 nM
O=C(O)Cc1ccc(F)c(-c2ccc(-c3cc(C(F)(F)F)nn3-c3ncccc3C(F)(F)F)s2)c1 [Example 1152, [4-fluoro-3-(5-{3-(trifluoromethyl)-1-[3-(trifluoromethyl)pyridin-2-yl]-1H-pyrazol-5-yl}-2-thienyl)phenyl]acetic acid] | 1000 to 10000 nM
COC(=O)Cc1ccc(-c2ccc(-c3cc(C(F)(F)F)nn3-c3ncccc3C(F)(F)F)s2)c(C)c1 [Example 1153, methyl [3-methyl-4-(5-{3-(trifluoromethyl)-1-[3-(trifluoromethyl)pyridin-2-yl]-1H-pyrazol-5-yl}-2-thienyl)phenyl]acetate] | 1000 to 10000 nM
CN(CC(=O)O)C(=O)c1cc(-c2ccc(-c3cccc(S(C)(=O)=O)c3)s2)n(-c2ccccc2Cl)n1 [Example 1154, N-{[1-(2-chlorophenyl)-5-{5-[3-(methylsulfonyl)phenyl]-2-thienyl}-1H-pyrazol-3-yl]carbonyl}-N-methylglycine] | 1000 to 10000 nM
Cc1cc(CC(=O)O)ccc1-c1ccc(-c2cc(C(F)(F)F)nn2-c2ncccc2C(F)(F)F)s1 [Example 1155, [3-methyl-4-(5-{3-(trifluoromethyl)-1-[3-(trifluoromethyl)pyridin-2-yl]-1H-pyrazol-5-yl}-2-thienyl)phenyl]acetic acid] | 1000 to 10000 nM
COC(=O)c1cc(-c2ccc(-c3cccc(S(C)(=O)=O)c3)s2)n(-c2ccccc2C(F)(F)F)n1 [Example 1156, methyl 5-{5-[3-(methylsulfonyl)phenyl]-2-thienyl}-1-[2-(trifluoromethyl)phenyl]-1H-pyrazole-3-carboxylate] | 1000 to 10000 nM
